Laboratory results from PMC10154249, “Unique progerin C-terminal peptide ameliorates Hutchinson–Gilford progeria syndrome phenotype by rescuing BUBR1” (Nature Aging, 2023).
Numbered stars: 1 amine (or outer) side, 2 acyl side, 3 side chain; on linkers, the order of the positions; unused ones are H or OH. Bridge positions count the residues as written; N and C are the ends. Square brackets hold non-standard residues; d marks the D form. Peptide text beside a SMILES is read from it. I, II: the chains in the order shown. Actinocin(9to1) = Cc1c2oc3c(C)ccc(C(=O)[*:1])c3nc-2c(C(=O)[*:2])c(N)c1=O; NMeV = CN[C@H](C(=O)O)C(C)C; Sar = CNCC(=O)O

Tests used:
[1] = tested on: BUBR1 mRNA; experiment: BUBR1 mRNA stability assay with Actinomycin D; format: cell-based, human; details: Fig. 4h, +Act D (shCtrl+Act D or shPTBP1#1+Act D), shCtrl = 1
Experimental: RNA preparation was performed as described. Total RNA was extracted using Trizol reagent (TaKaRa) following the manufacturer’s instructions. cDNA was generated with M-MLV reverse transcriptase (Promega, catalog no. M170B). Reverse transcription with PCR (RT-PCR) was performed with SYBR Green Real-Time PCR Master Mix (TaKaRa). RT-PCR was carried out on a QuantStudio 3 Real-Time-PCR Instrument (ABI). Data were analyzed and further processed in QuantStuido Design and Analysis Software and GraphPad Prism v.7. Fold change in gene expression over control samples was calculated using the 2^–ΔΔCt method, where β-actin Ct values were used as an internal control. The primer sequences for PCR, synthesized by Comate Bioscience, were as follows: […]

[2] = tested on: HGADFN003 cells; experiment: Ki67 immunofluorescence of HGADFN003 cells; format: cell-based, human; details: Fig.1o, HGADFN003, Vector 45, 38, 49, P=0.0031
Experimental: (§1) Immunofluorescence was performed as described previously. Cells were plated on cover slips in 12-well plates, left overnight before the treatment. Cells were fixed in 1% formaldehyde in culture medium for 10 min at 37 °C and permeabilized with 0.2% Triton X-100 in PBS for 10 min at room temperature. Cells were washed twice in PBS and blocked for 1 h with 5% BSA in PBS and then incubated with primary antibodies at 4 °C overnight, washed three times in PBS and incubated with secondary antibodies for 1 h at room temperature. Cell nuclei were counterstained with a 500 nM concentration of 4,6-diamidino-2-phenylindole (DAPI) (Sigma). Images were acquired by a fluorescence microscope (OLYMPUS FV-1000, Carl Zeiss LSM880 or Leica DMi8) and analyzed with software NIS-Elements AR v.5.0.1 (Nikon), FLUOVIEW v.4.2b (OLYMPUS), ZEN v.2.3 SP1 (Carl Zeiss) and Leica Application Suite X v.3.6.0.24 (Leica). Cells were quantified by investigators who were blinded to the identity of the analyzed cell.

[3] = tested on: HGADFN003 cells; experiment: SA-β-gal staining of HGADFN003 cells; format: cell-based, human; details: Fig.1m, HGADFN003, Vector 65, 68, 69, 65, P<0.0001
Experimental: (§2) SA-β-gal staining was performed as previously described. Cells were fixed in 0.5% glutaraldehyde for 15 min at room temperature, washed three times with PBS (pH 6.0) containing 1 mM MgCl2 and exposed overnight 37 °C to containing 1 mg ml^–1 5-bromo-4-chloro-3-indolyl-β-D-galactopyranoside (MCE, catalog no. HY-15934), 0.12 mM potassium ferrocyanide (Sigma, catalog no. P3289), 0.12 mM potassium ferricyanide (Sigma, catalog no. P8131) and 1 mM MgCl2 PBS buffer (pH 6.0). Cells were washed three times with H2O and observed under a microscope (OLYMPUS CKX53). SA-β-gal positive cells were quantified by investigators who were blinded to the identity of the analyzed cell.

[4] = tested on: IMR90 cells; experiment: Ki67 immunofluorescence of IMR90 cells; format: cell-based, human; details: Fig.1k, IMR90
Experimental: as §1

[5] = tested on: IMR90 cells; experiment: SA-β-gal staining of IMR90 cells (progerin, BUBR1, shBUBR1); format: cell-based, human; details: Fig.1i
Experimental: as §2

[6] = tested on: IMR90 and HGADFN003 cells; experiment: Metaphase chromosome spread assay, aneuploid cells; format: cell-based, human
Experimental: For the metaphase chromosome spread assay, 1.5 × 10^6 cells were seeded in a 6 cm dish and incubated for 24 h with fresh medium. Then, colchicine was added to a final concentration of 0.2 μg ml^–1 and the cells were incubated at 37 °C for 2 h. After digestion, we collected and rinsed the cells with PBS. The cells were centrifuged at 160g for 10 min. Then, 1 M KCl was added to a final concentration of 0.075 mol l^–1 and the samples were incubated at 37 °C for 20 min. The cells were centrifuged, and the supernatant aspirated. The pellet was resuspended, and 1 ml methanol:glacial acetic acid (3:1) solution was added. The sample was rested at room temperature for 10 min. Then, the cells were centrifuged at 160g for 10 min. The supernatant was aspirated, and the pellet resuspended in 1 ml fixative for 30 min. The cells were centrifuged and the pellet was suspended in 1 ml fixative again for 30 min. The cells were centrifuged at 160g for 10 min and the supernatant aspirated. The pellet was then resuspended in a small volume of fixative (typically less than 500 μl) until the cell suspension appeared lightly milky. A small quantity of the cell suspension was held vertically in a pipette with the end about 10 cm above the slide. A single drop was released from this height onto the slide and allowed to air dry. The cells were then incubated with 500 nM of DAPI (Invitrogen) for 10 min. Slides were examined with an Olympus BX53 fluorescence microscope and the images were captured by using the Olympus IPP v.7.0 software. Aneuploid cells were quantified by investigators who were blinded to the identity of the analyzed cell.

[7] = tested on: progerin–BUBR1 interaction; experiment: CoIP of progerin and BUBR1 in HEK-293T cells; format: cell-based; details: HEK-293T co-transfected with truncated mutants and HA-progerin
Experimental: Detailed descriptions of CoIP were described previously[55],[56]. Cells were harvested and washed three times in cold PBS, then lysed in CoIP buffer (25 mM Tris-HCl (pH 7.5), 150 mM KCl, 5 mM EDTA, and 0.5% NP-40) plus protease inhibitor cocktail tablet (Roche). Incubate on ice and shock lysates on the vortex shaker 15 times for 30 s each. Microcentrifuge in 12,000g for 15 min at 4 °C, collect the supernatant, and incubate with 3 μg primary antibodies with gentle shaking overnight at 4 °C, followed by adding 20–40 μl Pure Proteome Protein A/G Mix Magnetic Beads (Millipore, catalog no. […]02) for 3 h. Wash the beads three times with 1 ml CoIP buffer for 8 min each, resuspend in 50 μl 1× loading buffer, and incubate at 100 °C for 8 min. Throw beads away and analyze by immunoblotting.

Compound: Cc1c2oc3c(C)ccc(C(=O)N[C@@H]4C(=O)N[C@H](C(C)C)C(=O)N5CCC[C@H]5C(=O)N(C)CC(=O)N(C)[C@@H](C(C)C)C(=O)O[C@@H]4C)c3nc-2c(C(=O)N[C@@H]2C(=O)N[C@H](C(C)C)C(=O)N3CCC[C@H]3C(=O)N(C)CC(=O)N(C)[C@@H](C(C)C)C(=O)O[C@@H]2C)c(N)c1=O [ActD] (I: T[dV]P[Sar][NMeV] / II: T[dV]P[Sar][NMeV]; ester I:1-I:C, II:1-II:C; linker I:N-II:N via Actinocin(9to1))
- BUBR1 relative (to β-actin) mRNA level (2-ΔΔCt) ([1]; replicate 1): 0.6794
- BUBR1 relative (to β-actin) mRNA level (2-ΔΔCt) ([1]; replicate 2): 0.7373
- BUBR1 relative (to β-actin) mRNA level (2-ΔΔCt) ([1]; replicate 3): 0.615

Compound: BUBR1
- Relative percentage of Ki67 positive cells ([2]; replicate 1): 78%
- Relative percentage of Ki67 positive cells ([2]; replicate 2): 74%
- Relative percentage of Ki67 positive cells ([2]; replicate 3): 67%
- Relative percentage of SA-β-gal positive cells ([3]; replicate 1): 48%
- Relative percentage of SA-β-gal positive cells ([3]; replicate 2): 49%
- Relative percentage of SA-β-gal positive cells ([3]; replicate 3): 50%
- Relative percentage of SA-β-gal positive cells ([3]; replicate 4): 42%
- Relative percentage of Ki67 positive cells ([4]; Vector 67, 75, 60, P vs Vector: BUBR1 0.803, progerin 0.0018, replicate 1): 64%
- Relative percentage of Ki67 positive cells ([4]; Vector 67, 75, 60, P vs Vector: BUBR1 0.803, progerin 0.0018, replicate 2): 78%
- Relative percentage of Ki67 positive cells ([4]; Vector 67, 75, 60, P vs Vector: BUBR1 0.803, progerin 0.0018, replicate 3): 65%
- Relative percentage of Ki67 positive cells ([4]; progerin+BUBR1, P=0.0042 vs progerin, replicate 1): 48%
- Relative percentage of Ki67 positive cells ([4]; progerin+BUBR1, P=0.0042 vs progerin, replicate 2): 51%
- Relative percentage of Ki67 positive cells ([4]; progerin+BUBR1, P=0.0042 vs progerin, replicate 3): 45%
- Relative percentage of SA-β-gal positive cells ([5]; Vector 2, 1, 2, P vs Vector: BUBR1 0.2302, progerin 0.0003, replicate 1): 3%
- Relative percentage of SA-β-gal positive cells ([5]; Vector 2, 1, 2, P vs Vector: BUBR1 0.2302, progerin 0.0003, replicate 2): 2%
- Relative percentage of SA-β-gal positive cells ([5]; Vector 2, 1, 2, P vs Vector: BUBR1 0.2302, progerin 0.0003, replicate 3): 2%
- Relative percentage of SA-β-gal positive cells ([5]; progerin+BUBR1, P=0.0026 vs progerin, replicate 1): 15%
- Relative percentage of SA-β-gal positive cells ([5]; progerin+BUBR1, P=0.0026 vs progerin, replicate 2): 18%
- Relative percentage of SA-β-gal positive cells ([5]; progerin+BUBR1, P=0.0026 vs progerin, replicate 3): 20%
- Relative percentage of aneuploid cells ([6]; Fig.1p, IMR90, Vector 6, 5, 8, replicate 1): 5%
- Relative percentage of aneuploid cells ([6]; Fig.1p, IMR90, Vector 6, 5, 8, replicate 2): 5%
- Relative percentage of aneuploid cells ([6]; Fig.1p, IMR90, Vector 6, 5, 8, replicate 3): 7%
- Relative percentage of aneuploid cells ([6]; Fig.1p, IMR90, progerin+BUBR1, replicate 1): 25%
- Relative percentage of aneuploid cells ([6]; Fig.1p, IMR90, progerin+BUBR1, replicate 2): 17%
- Relative percentage of aneuploid cells ([6]; Fig.1p, IMR90, progerin+BUBR1, replicate 3): 22%
- Relative percentage of aneuploid cells ([6]; Fig.1q, HGADFN003, Vector 29, 35, 32, P=0.0053, replicate 1): 21%
- Relative percentage of aneuploid cells ([6]; Fig.1q, HGADFN003, Vector 29, 35, 32, P=0.0053, replicate 2): 17%
- Relative percentage of aneuploid cells ([6]; Fig.1q, HGADFN003, Vector 29, 35, 32, P=0.0053, replicate 3): 14%

Compound: progerin-C36: truncated progerin-C, aa residues 579–614, used for the design of UPCP (YNLRSRTVLCGTCGQPADKASASGSGAQSPQNCSIM)
- block of progerin–BUBR1 binding by truncated progerin-C [7]: could block the binding of progerin and BUBR1
